Results taken from patent publication US5516790A, “Synthesis and application of alkyl-substituted dibenzofurans as antitumorigenic agents” (Texas A&M University System Technology Licensing Office, priority 1994, dated 1996).
Where two headings read alike, the source gives them in different places.

What was measured:
estrogen receptor (ER) = assay type: in vivo, female Sprague/Dawley rats
Experimental: (§1) TCDD or MCDF was co-administered with a second dose of estradiol and the animals were killed 48-hours later. A second group of animals was similarly treated with corn oil, TCDD, MCDF, or TCDD plus MCDF, all administered in corn oil at 10 ml/kg and terminated 72 hours later.
(§2) The animals were terminated by cervical dislocation. Livers were perfused with ice-cold TEDG buffer (10 mM Tris-HCl, 1.5 mM EDTA-4Na, 1 mM dithiothreitol, 10% glycerol (v/v), pH 7.4). Following perfusion in situ, livers were removed, weighed, and homogenized in ice-cold TEDG buffer. Uteri were also removed, weighed, and homogenized in ice-cold buffer. The homogenates were then centrifuged at 800×g […] for 15 minutes and the nuclear pellets were stored at -80° C. The supernatants were further centrifuged at 180,000×g for 1.5 hour. The cytosolic supernatant was also stored at -80° C. Estrogen and progesterone receptor levels were determined within 7 days.
(§3) Estrogen and progesterone receptor levels were determined by the hydroxyapatite assay as described by Clark et al. (J. Steroid, Biochem., 16, 323-328 (1982)). […] Following the incubations, samples were counted and specific binding was calculated by subtraction of nonspecific from total binding. Assuming one steroid molecule binds to one estrogen/progesterone receptor, the number of moles of receptor can be calculated given the specific activity of the radioligand. […] Significant differences were determined by ANOVA.

[1] = system: progesterone receptor (PR); assay type: in vivo, female Sprague/Dawley rats
Experimental: as §1, §2, §3

nuclear ER = experiment: Nuclear ER levels in MCF-7 cells; assay type: cell-based, human; conditions: TCDD (10 nM), MCDF (100 nM)
Experimental: MCF-7 cells, obtained from American Type Culture Collection (Rockville, Ma.), were maintained at 37° C. in closed Corning T-25, 75 or 150 cm^2 flasks (Corning Glassworks, Corning, N.Y.) and passaged in logarithmic growth phase.
For the 2,3,7,8-TCDD antiestrogenicity studies, cells were treated 24 hours prior to harvesting with various concentrations of 2,3,7,8-TCDD (0.1 nM to 100 nM 2,3,7,8-TCDD). Interactive effects between 2,3,7,8-TCDD and estradiol were conducted using these same concentrations of 2,3,7,8-TCDD and 10 nM estradiol. […]
MCF-7 cells from a single near confluent T-25 flask were incubated at 37° C. for 0.5 hours prior to harvesting with 10 nM 2,4,6,7-[^3H]-estradiol. The medium was then decanted and the cells were rinsed once with Hanks' balanced salt solution containing 1 mM EDTA. The cells were collected by centrifugation, washed gently in 2 ml of TEDG buffer and homogenized in 300 μl of TEDG buffer containing protease inhibitors [soybean trypsin inhibitor 5 mg/ml (Sigma), leupetin 1 mg/ml (Sigma), and phenylmethylsulfonyl fluoride 1 mg/ml (Sigma) by 40 strokes of a Dounce homogenizer. The homogenate was centrifuged at 800×g for 10 minutes. The crude nuclear pellet was resuspended in 300 μl of TEDGK buffer (10 mM Tris-HCl, 1.5 mM EDTA-4Na, 10 mM dithiothreitol, 10% (v/v) glycerol, 0.8 M KCl, pH 8.5 at 4° C.). The nuclear ER levels were then determined as described below.
The nuclear extract previously obtained was incubated with 10 nM [^3 H]-estradiol plus or minus radioinert diethylstilbestrol for 1 hour at 0-4° C., with resuspension by agitation every 15 minutes. The sample was then centrifuged at 180,000×g for 30 minutes, then 200 μl of the supernatant obtained was layered onto linear 1-20% sucrose gradients prepared in TEDGMK buffer. As before, the gradients were centrifuged at 406,000×g for 2.5 hours in a vertical rotor. Following centrifugation, 30 fractions of […] were collected and the radioactivity in each sample was determined.

[2] = system: MCF-7 human breast cancer cells; conditions: TCDD; cited from earlier work
[3] = Table 11, compound alone: TCDD 0.256 or MCDF 100 μmol/kg, or estradiol

Clc1cc2c(cc1Cl)Oc1cc(Cl)c(Cl)cc1O2 [TCDD, 2,3,7,8-tetrachloridibenzo-p-dioxin]
Hepatic ERc (estrogen receptor (ER); TCDD 0.256 μmol/kg): 1.7 ± 0.3 fmol/mg protein | Hepatic ERn (estrogen receptor (ER); TCDD 0.256 μmol/kg): 2.3 ± 0.6 fmol/mg protein | Uterine ERc (estrogen receptor (ER); TCDD 0.256 μmol/kg): 92.1 ± 8.2 fmol/mg protein | Uterine ERn (estrogen receptor (ER); TCDD 0.256 μmol/kg): 10.6 ± 0.6 fmol/mg protein | Hepatic ERc (estrogen receptor (ER); [3]): 2.2 ± 0.8 fmol/mg protein | Hepatic ERn (estrogen receptor (ER); [3]): 2.4 ± 0.4 fmol/mg protein | Uterine ERc (estrogen receptor (ER); [3]): 57.8 ± 6.3 fmol/mg protein | Uterine ERn (estrogen receptor (ER); [3]): 11.7 ± 0.8 fmol/mg protein | Hepatic ERc (estrogen receptor (ER); Table 11, cotreatment with E-2): 6.8 ± 1.0 fmol/mg protein | Hepatic ERn (estrogen receptor (ER); Table 11, cotreatment with E-2): 4.0 ± 0.8 fmol/mg protein | Uterine ERc (estrogen receptor (ER); Table 11, cotreatment with E-2): 82.8 ± 5.4 fmol/mg protein | Uterine ERn (estrogen receptor (ER); Table 11, cotreatment with E-2): 17.4 ± 1.0 fmol/mg protein | Hepatic PRc ([1]; TCDD 0.256 μmol/kg): 38.3 ± 3.9 fmol/mg protein | Hepatic PRn ([1]; TCDD 0.256 μmol/kg): 5.9 ± 1.1 fmol/mg protein | Uterine PRc ([1]; TCDD 0.256 μmol/kg): 82 ± 30.2 fmol/mg protein | Uterine PRn ([1]; TCDD 0.256 μmol/kg): 190 ± 14.2 fmol/mg protein | Hepatic PRc [1, 3]: 61.9 ± 7.3 fmol/mg protein | Hepatic PRn [1, 3]: 5.9 ± 0.4 fmol/mg protein | Uterine PRc [1, 3]: 898.0 ± 49.2 fmol/mg protein | Uterine PRn [1, 3]: 180 ± 9.9 fmol/mg protein | Hepatic PRc ([1]; Table 11, cotreatment with E-2): 110.3 ± 8.3 fmol/mg protein | Hepatic PRn ([1]; Table 11, cotreatment with E-2): 6.8 ± 1.3 fmol/mg protein | Uterine PRc ([1]; Table 11, cotreatment with E-2): 811.3 ± 27.1 fmol/mg protein | Uterine PRn ([1]; Table 11, cotreatment with E-2): 511 ± 19.3 fmol/mg protein | nuclear ER levels (nuclear ER): decrease in nuclear ER levels | 17β-estradiol-induced growth of MCF-7 human breast cancer cells [2]: inhibits
